According to article PMC8315922, “In Vitro Identification and In Vivo Confirmation of Inhibitors for Sweet Potato Chlorotic Stunt Virus RNA Silencing Suppressor, a Viral RNase III” (Journal of Virology, 2021):
Like-named read-outs stand apart in the source and are kept apart here.

Legend:
[1] = target: CSR3 (RNase III of SPCSV) (Sweet potato chlorotic stunt virus, UniProt Q8JJW8); assay: Kinetic-based FRET dose-response assay (IC50, DSS); assay type: biochemical; design: DSS / DSS Comm 1 / DSS FIMM1 / DSS FIMM 2: scale not given here; settings: for DSS Comm 1 / DSS FIMM1 / DSS FIMM 2: drug sensitivity score; for DSS Comm 1: repeat Comm 1; for DSS FIMM1: repeat FIMM 1; for DSS FIMM 2: repeat FIMM 2
Protocol: A dose-response assay with six concentrations (1.25 nM to 50 μM) was carried out in three independent experiments, which included two tests with the 112 selected FIMM compounds (i.e., compounds prepared by the HTB-FIMM) and one test using the newly ordered commercial compounds (99 of the 112 compounds, i.e., compounds prepared by a second supplier). A dose-response curve was generated for each compound based on PI values as a function of the concentration.
The HTS assay was designed based on FRET using a 22-bp siRNA (forward sequence, […]; reverse sequence, […]) with a 2-nucleotide (nt) 3′ overhang labeled with the fluorescent dye 6-carboxyfluorescein (FAM) and a black hole quencher (BHQ1) on the sense strand (Metabion, Munich, Germany). Screening was initially carried out at one concentration (10 μM) in a 20-μl reaction buffer. […] All reaction mixtures contained 50 nM CSR3 and 375 nM labeled siRNA in 384-well black flat-bottom microplates (Corning, NY, USA) and were prepared using a BioTek MultiFlo FX dispenser with single-channel random access dispenser cassettes (BioTek, Winooski, VT, USA). The plates were read with a PHERAstar FS reader (BMG Labtech, Ortenberg, Germany).
(§1) For HTS, the activity of CSR3 was calculated by measuring the change in fluorescence as a function of the reaction time using MARS Data Analysis software (BMG Labtech). To evaluate the CSR3 inhibition efficiency of individual compounds, the PI of each compound was calculated using the slope values for the sample, positive control, and negative control according to the following equation: PI = 100 × [1 − (sample − positive)/(negative − positive)]%. IC50 and DSS values were calculated using concentration-specific PI values according to a previous study ([31]). Relative gene expression was calculated using the classical 2^−ΔΔ^CT method ([63]).

SPCSV [2] = assay: Virus accumulation (RT-qPCR of coat protein RNA) in coinfected sweetpotato plants grown in culture medium: SPCSV; assay type: in vivo, Sweet potato chlorotic stunt virus; settings: for SPCSV accumulation reduced / viral titer SPCSV (log2 fold change relative to controls): plants in culture medium, 50 μM; for SPCSV_FC (fold change of viral accumulation): 50 μM in culture medium, 28 days, relative to DMSO control
Protocol: (§2) Since tests in culture medium consume smaller amounts of compounds and can be carried out under relatively controlled conditions, sweetpotato plants coinfected with SPCSV and SPFMV were grown in medium supplemented with one of the 30 inhibitor candidates at a concentration of 50 μM. Their effects on plant growth were monitored by imaging the plants once a week. […] In addition, virus accumulation was quantified by measuring the relative abundance of the transcripts encoding viral coat proteins using RT-qPCR ([32]). The effect of individual compounds on virus accumulation was estimated by comparing treated and control plants.
(§3) Sweetpotato plants cultivar 'Huachano' (accession CIP420065) were side-graft inoculated with both SPFMV (East African strain isolate Nam1) and SPCSV-Ug (East African serotype 2) as described previously ([62]). Plantlets were propagated by taking single-node stems grown in a plant culture medium ([33]). Next, plantlets with newly formed roots were transferred to glass tubes (18 by 150 mm) containing 10 ml of medium supplemented with either 50 μM compound (diluted in DMSO; final DMSO concentration, 0.1%) or only 0.1% DMSO as a control. For plant experiments in soil, plantlets were transferred to pots (6 by 6 by 10 cm) filled with a mixture of sand, humus, and washed soil. After 1 week, plants were treated by foliar spraying using either individual compounds at a single concentration (10 μM) (treatment) or water (control/mock) twice a week for 1 month. All plants were grown at 22°C with 60% humidity and a 16-h light/8-h dark photoperiod for 28 days in culture medium and for 41 days in soil. The Finnish National Plant Phenotyping Infrastructure (NaPPI) was used to monitor plant viral disease symptoms as described in our previous study ([33]). Four compounds were tested with the phenotyping platform in two independent batches, each of which included five biological replicates.
(§4) Leaf samples were collected from plants grown in culture medium or soil for 28 or 41 days, respectively, and frozen in liquid nitrogen. Total RNA was extracted using the Spectrum plant total RNA kit (Sigma-Aldrich). First-strand cDNA was synthesized using the Transcriptor first-strand cDNA synthesis kit (Roche, Basel, Switzerland). […] All RT-qPCR experiments were conducted in triplicate on three and five biological replicates from plants grown in culture medium and soil, respectively. The primer list can be found in our previous study ([33]).
as §1

CSR3 [3] = target: T1, CSR3 (Sweet potato chlorotic stunt virus, UniProt Q8JJW8); assay: Binding affinity assay using MST; settings: for Comments: MST behaviour of compound (V-shape response, fluorescence quenching, interference, aggregator); for Kd: MST binding affinity to CSR3; for Kd / Binding (Yes/No) / Response Amplitude: Table S4; for Binding (Yes/No): MST binding call; for Response Amplitude: MST response amplitude
T1 sequence (Q8JJW8 1-228): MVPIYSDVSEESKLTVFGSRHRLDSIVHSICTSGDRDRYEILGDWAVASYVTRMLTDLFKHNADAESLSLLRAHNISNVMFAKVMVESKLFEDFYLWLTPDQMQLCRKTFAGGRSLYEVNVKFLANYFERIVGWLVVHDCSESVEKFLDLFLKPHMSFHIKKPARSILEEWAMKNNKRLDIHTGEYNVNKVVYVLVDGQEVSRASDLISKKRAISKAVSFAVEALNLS
Protocol: (§5) Binding affinity assays were first carried out with the 99 commercial compounds using the MST method.
The labeled-protein solution containing 500 nM proteins and 40 nM dye was prepared in PBS buffer with 2% dimethyl sulfoxide (DMSO) for the assay. The 12 concentrations for each compound were obtained by 2-fold serial dilutions (0.2 μM to 400 μM). […] Two independent experiments were carried out in premium coated capillaries (NanoTemper, Munich, Germany) using a Monolith NT.Automated instrument (NanoTemper) with the power set at high (80%), the light-emitting diode (LED) power (pico red) set at 5%, and the on-time set at 20 s. The dissociation constant (Kd) was determined using the MO.Affinity Analysis program (NanoTemper).

SPFMV [4] = assay: Virus accumulation (RT-qPCR of coat protein RNA) in coinfected sweetpotato plants grown in culture medium: SPFMV; assay type: in vivo, Sweet potato feathery mottle virus; settings: for SPFMV accumulation reduced / viral titer SPFMV (log2 fold change relative to controls): plants in culture medium, 50 μM; for SPFMV_FC (fold change of viral accumulation): 50 μM in culture medium, 28 days, relative to DMSO control
Protocol: as §2, §3, §4, §1

CSR3 [5] = target: T1, CSR3; assay: Binding affinity assay using SPR; settings: SPR dose-response 3 μM to 200 μM, 25°C, numbers match M (cf. Fig 5A)
Protocol: as §5
CSR3 was purified as described above and stored in PBS buffer. SPR was performed on a BiacoreT100 instrument (GE Healthcare) using a sensor S CM5 chip (GE Healthcare). CSR3 (10 ng/μl) was immobilized using the standard amine-coupling method according to the manufacturer’s instructions with immobilization buffer (10 mM sodium acetate [pH 4]); the final response unit (RU) value was 11,459. Compounds at a single concentration (100 μM) or consisting of 2-fold serial dilutions (3 μM to 200 μM) were flowed over the sensor surface using PBS buffer with 0.01 M HEPES, 0.05% surfactant P20, and 2% DMSO. […] To eliminate bulk interference by DMSO, a solvent correction consisting of DMSO at concentrations ranging from 1.5% to 2.8% was carried out for every 30 samples. Steady-state affinity (KD) values were determined using BiacoreT100 Evaluation software, v.2.04 (GE Healthcare).

sweetpotato plants = settings: 50 μM in culture medium
[6] = tested on: human enzymes or bacterial proteins; design: method as in earlier work; settings: ref PubChem https://pubchem.ncbi.nlm.nih.gov/compound/7114450#section=Biological-Test-Results; cited from earlier work
SPCSV [7] = settings: plants in soil, 10 μM foliar spray twice a week for 1 month, vs water-treated
Protocol: (§6) Compounds were administered by regular foliar spray over 1 month.
as §3
(§7) Leaf samples were collected from plants grown in culture medium or soil for 28 or 41 days, respectively, and frozen in liquid nitrogen. Total RNA was extracted using the Spectrum plant total RNA kit (Sigma-Aldrich). First-strand cDNA was synthesized using the Transcriptor first-strand cDNA synthesis kit (Roche, Basel, Switzerland). Gene expression was measured in a final volume of 10 μl (containing 2 μl 10-fold-diluted cDNA, 5 μl SYBR green I master mix [Roche], and 2.5 μM primers) using the LightCycler 480 instrument II (Roche). All RT-qPCR experiments were conducted in triplicate on three and five biological replicates from plants grown in culture medium and soil, respectively. The primer list can be found in our previous study ([33]).
as §1

SPFMV [8] = settings: plants in soil, 10 μM foliar spray twice a week for 1 month, vs water-treated
Protocol: as §6, §3, §7, §1

[9] = kinetic-based HTS, Fig 5A summary
[10] = read-out: IC50 Comm 1, repeat Comm 1 (commercial compounds), 1.25 nM to 50 μM, unit inferred, numbers match nM
[11] = repeat FIMM 2 (FIMM library compounds), 1.25 nM to 50 μM, unit inferred, numbers match nM, read-out: IC50 FIMM 2
[12] = repeat Comm 1 (commercial compounds), 1.25 nM to 50 μM, unit inferred, numbers match nM, read-out: IC50 Comm 1
[13] = repeat FIMM 1 (FIMM library compounds), 1.25 nM to 50 μM, unit inferred, numbers match nM (cf. Fig 5A), read-out: IC50 FIMM1
[14] = read-out: IC50 FIMM1, repeat FIMM 1 (FIMM library compounds), 1.25 nM to 50 μM, unit inferred, numbers match nM (cf. Fig 5A)
[15] = read-out: IC50 FIMM 2, repeat FIMM 2 (FIMM library compounds), 1.25 nM to 50 μM, unit inferred, numbers match nM

Row | SMILES | DSS Comm 1 [1] | DSS FIMM1 [1] | DSS FIMM 2 [1] | DSS [1, 9] | IC50 [1, 9] | IC50 [1, 10] | IC50 [1, 11] | SPCSV accumulation reduced (SPCSV [2]) | Binding (Yes/No) (CSR3 [3]) | Response Amplitude (CSR3 [3]) | SPFMV accumulation reduced (SPFMV [4]) | IC50 [1, 12] | SPCSV_FC (fold change of viral accumulation) (SPCSV [2]) | SPFMV_FC (fold change of viral accumulation) (SPFMV [4]) | Toxicity (sweetpotato plants) | other results
1 | CN1CCc2cccc3c2[C@H]1Cc1ccc(O)c(O)c1-3 [FIMM000096, reference compound] | 12.7 | 12.7 | 12.8 | 12.7 | ~2950 nM | 2950 nM | 2880 nM | ~4 fold | Yes | 11808 | ~2 fold |  |  |  |  | Comments (CSR3 [3]): Fluorescence quenching; Kd (CSR3 [3]): 690 nM
2 | O=S(=O)(O)c1cccc2cc(O)ccc12 [FIMM072577] | 20.7 | 18.3 | 22.1 |  |  |  | 295 nM |  | No | 0 |  | 391 nM | 0.7975 | 1.005 | no | IC50 [1, 13]: 699 nM; Comments (CSR3 [3]): Interference; Steady State Affinity (CSR3 [5]; unit not given): non binder
3 | O=C(O)c1ccc2c(c1)C1C=CCC1C(c1ccc(F)cc1)N2 (centres unmarked) [FIMM051696] | 11.1 | 12.4 | 10.8 | 12.4 | ~2820 nM | 3610 nM |  | ~4 fold | No | 0.517 | ~4 fold |  | 0.2923 | 0.3032 | no | IC50 [1, 14]: 2820 nM; IC50 [1, 15]: 4000 nM; viral titer SPCSV (log2 fold change relative to controls) (SPCSV [2]): −1.77; Kd (CSR3 [5]; unit inferred, read-out: Steady State Affinity): 3650 nM; activity in inhibitor screens for human enzymes or bacterial proteins [6]: inactive; viral titer SPFMV (log2 fold change relative to controls) (SPFMV [4]): −1.72
4 | CN1C(=O)C(=CNc2ccc(F)cc2)C(=O)N(C)C1=O [FIMM059523] |  | 0 | 2.3 |  |  |  | 21000 nM |  |  |  |  |  |  |  |  | 
5 | CC(C)(C)C1CCc2c(sc(NC(=O)C3CC=CCC3C(=O)O)c2C(N)=O)C1 (centres unmarked) [FIMM104970] | 2.4 | 0 | 2.1 |  |  |  |  |  | No | 2.23 |  | 3620 nM |  |  |  | 
6 | O=C(O)c1ccc2c(c1)C1C=CCC1C(c1ccccc1)N2 (centres unmarked) [FIMM005536] | 12.4 | 12.5 | 12.1 | 12.5 | ~2740 nM | 2880 nM |  | approximately 8 fold | No | 0 | ~4 fold |  | 0.1274 | 0.2931 | no | log2 fold change in coat protein expression of SPCSV (SPCSV [7]): −1.67; log2 fold change in coat protein expression of SPFMV (SPFMV [8]): −1.36; IC50 [1, 14]: 2750 nM; IC50 [1, 15]: 2930 nM; viral titer SPCSV (log2 fold change relative to controls) (SPCSV [2]): −2.97; activity in inhibitor screens for human enzymes or bacterial proteins [6]: inactive; viral titer SPFMV (log2 fold change relative to controls) (SPFMV [4]): −1.77
7 | CCn1c(S)nnc1CCNC(=O)c1cccs1 [FIMM099662] | 6 | 11.7 | 10.2 |  |  |  | 3810 nM |  | Yes | 21 |  | 11400 nM | 0.5483 | 0.9387 | no | IC50 [1, 13]: 3070 nM; Kd (CSR3 [3]; read-out: Kd): 1780 nM
